Legend:
Type in all cases: in vivo
Nephotettix cincticeps = Nephotettix cincticeps test (NEPHCI); settings: 0.16 ppm
Experimental: Nephotettix cincticeps Test (NEPHCI)
(§1) Solvent: 7 parts by weight of dimethylformamide
Emulsifier: alkylaryl polyglycol ether
(§2) To produce an appropriate active ingredient formulation, 1 part by weight of active ingredient is dissolved using the stated parts by weight of solvent and made up with water containing an emulsifier concentration of 1000 ppm until the desired concentration is attained. To produce further test concentrations, the preparation is diluted with emulsifier-containing water. In the event that addition of ammonium salts or/and penetrants (rapeseed oil methyl ester) is required, these are each pipetted in a concentration of 1000 ppm after the finished formulation solution has been diluted.
Rice plants (Oryza sativa, var. Balilla) are treated by spraying with the active ingredient formulation in the desired concentration and then populated with larvae of the green rice leafhopper (Nephotettix cincticeps).
After the desired time, the kill in % is determined. 100% means that all leafhoppers have been killed; 0% means that none of the leafhoppers have been killed.

Boophilus microplus = Boophilus microplus injection test (BOOPMI Inj); settings: application rate 20 μg/animal; injection into engorged adult female cattle ticks; after 7 days
Experimental: Boophilus microplus—Injection Test (BOOPMI Inj)
Solvent: dimethyl sulphoxide
To produce an appropriate active ingredient formulation, 10 mg of active ingredient are mixed with 0.5 ml of solvent and the concentrate is diluted with solvent to the desired concentration.
1 μl of the active ingredient solution is injected into the abdomen of 5 engorged adult female cattle ticks (Boophilus microplus). The animals are transferred into dishes and kept in a climate-controlled room.
Efficacy is assessed after 7 days by laying of fertile eggs. Eggs which are not visibly fertile are stored in a climate-controlled cabinet until the larvae hatch after about 42 days. An efficacy of 100% means that none of the ticks has laid any fertile eggs; 0% means that all the eggs are fertile.

Myzus persicae [1] = assay: Myzus persicae spray test (MYZUPE), Chinese cabbage leaf discs; settings: application rate 500 g/ha, after 6 days
Experimental: Myzus persicae—Spray Test (MYZUPE)
Solvent: 78 parts by weight of acetone • • 1.5 parts by weight of dimethylformamide
(§3) Emulsifier: alkylaryl poly glycol ether
To produce an appropriate active ingredient formulation, 1 part by weight of active ingredient is dissolved using the stated parts by weight of solvent and made up with water containing an emulsifier concentration of 1000 ppm until the desired concentration is attained. To produce further test concentrations, the preparation is diluted with emulsifier-containing water.
Discs of Chinese cabbage leaves (Brassica pekinensis) infested by all stages of the green peach aphid (Myzus persicae) are sprayed with an active ingredient formulation of the desired concentration.
After 6 days, the efficacy in % is determined. 100% means that all the aphids have been killed; 0% means that none of the aphids have been killed.

Ctenocephalides felis = Ctenocephalides felis oral test (CTECFE); settings: application rate 100 ppm; in citrated cattle blood; after 2 days
Experimental: Ctenocephalides felis-Oral Test ([…]) Solvent: dimethyl sulphoxide For the purpose of producing an appropriate active ingredient formulation, 10 mg of active ingredient are mixed with 0.5 ml of dimethyl sulphoxide. Dilution with citrated cattle blood gives the desired concentration. About 20 unfed adult cat fleas (Ctenocephalides felis) are placed into a chamber which is closed at the top and bottom with gauze. A metal cylinder whose bottom end is closed with parafilm is placed onto the chamber. The cylinder contains the blood/active ingredient preparation, which can be imbibed by the fleas through the parafilm membrane. After 2 days, the kill in % is determined. 100% means that all of the fleas have been killed; 0% means that none of the fleas have been killed.

Myzus persicae [2] = assay: Myzus persicae translaminar test (MYZUPE t); settings: 14 dat
Experimental: Myzus persicae—Translaminar Test (MYZUPE t)
as §1, §3, §2
One-leaved bell pepper plants (Capsicum annuum) heavily infested by the green peach aphid (Myzus persicae) are treated by spraying the top side of the leaf with the active ingredient formulation in the desired concentration.
After the desired time, the kill in % is determined. 100% means that all the aphids have been killed and 0% means that none of the aphids have been killed.

CCS(=O)(=O)c1cc(C(F)(F)F)cnc1-c1nc2cc(C(F)(F)F)ncc2n1C [Example I-21] was tested, and the “% efficacy” value (Nephotettix cincticeps; 14 dat) was 90%, the “% efficacy” value (Nephotettix cincticeps; 21 dat) was 95% and the “% efficacy” value (Nephotettix cincticeps; 34 dat) was 100%. For the same molecule, the “efficacy (laying of fertile eggs)” value (Boophilus microplus) was 80%, the efficacy (Myzus persicae [1]) was 90% and the “efficacy (kill)” value (Ctenocephalides felis) was 90%. For the same molecule, the “% efficacy” value (Myzus persicae [2]; 2.4 g/ha) was 90% and the “% efficacy” value (Myzus persicae [2]; 12 g/ha) was 98%.

— patent publication US11274097B2, “2-(het)aryl-substituted condensed bicyclic heterocycle derivatives as pest control agents” (BAYER CROPSCIENCE AKTIENGESELLSCHAFT, priority 2014, dated 2022)
